From EP4748847A1, “PEPTIDE COMPLEX HAVING VEGFR -2 AGONIST ACTIVITY” (Peptidream Inc, priority 2023, dated 2025)
*1 amine or outer side, *2 acyl side, *3 side chain or, on linkers, in order; H or OH if unused. Where a SMILES comes first, the peptide text is derived from it. Bridges are numbered along the chain shown (N, C = ends). Roman numbers before positions name the chains, in order. [ ]: non-standard residue; d: D form. CO(CH2)2(OCH2CH2)17CO = O=C(CCOCCOCCOCCOCCOCCOCCOCCOCCOCCOCCOCCOCCOCCOCCOCCOCCOCCC(=O)[*:2])[*:1]; Phe(4-guanidino) = N=C(N)Nc1ccc(C[C@H](N)C(=O)O)cc1; Trp(7-aza) = N[C@@H](Cc1c[nH]c2ncccc12)C(=O)O; hTyr = N[C@@H](CCc1ccc(O)cc1)C(=O)O; h4Pal = N[C@@H](CCc1ccncc1)C(=O)O; Tle = CC(C)(C)[C@H](N)C(=O)O

biological target: T1, VEGFR-2 (Homo sapiens, UniProt P35968); assay: pVEGFR AlphaLISA assay (VEGFR-2 phosphorylation, p-Tyr1175) in HUVECs; format: cell-based; conditions: 10 minutes stimulation, % activity, maximum VEGF165a signal = 100%, unstimulated = 0%, peptide 1.25, 5, 20 nM (dimer structures 42-57)
T1 construct: endogenous in cells; host or cells: HUVEC
Method: To evaluate the VEGFR-2 activation ability of the VEGFR-2 agonist peptides of the present invention, VEGFR-2 phosphorylation was verified. HUVECs were cultured using EGM™ -2 Endothelial Cell Growth Medium-2 BulletKit (LONZA; CC-3162). After detaching cells using Tryple (Thermo Fisher Scientific), they were seeded into a 96-well PDL-coated plate (Corning: 354461) at a density of 24,000 cells per well and cultured for 2 days. For starvation, the medium was replaced with EBM-2 medium (LONZA) containing 0.5% FBS (Thermo Fisher Scientific), 0.1% heparin (included with the above LONZA CC-3162), and 0.1% gentamicin (Nacalai), and the cells were cultured for 18 hours. Subsequently, Recombinant Human VEGF165a Protein (R&D Systems) or the peptide was added, and the cells were cultured in a CO2 incubator at 37°C. After 10 minutes of stimulation, cells were lysed using the Lysis Buffer included in the AlphaLISA SureFire Ultra VEGFR-2 (p-Tyr1175) Assay Kit (PerkinElmer) to lyse the cells. The procedure was performed according to the kit protocol, and signal detection was performed using a SpectraMax Paradigm multimode microplate reader (Molecular Devices). The obtained signals were analyzed using GraphPad Prism, and % activity was calculated with the maximum signal induced by VEGF165a set as 100% and the unstimulated control as 0%.
The VEGF165a concentration was evaluated at five points (0.08, 0.31, 1.25, 5, 20 nM) using 1/4-fold dilutions starting from 20 nM to determine the maximum value (100%). Peptide concentrations tested were: 3.2, 16, 80 nM for dimer structure number 1; 10, 100 nM for dimer structures numbers 2-41; and 1.25, 5, 20 nM for dimer structures numbers 42-57. […]
Peptides showing 50% or more activity at 10 nM were designated 2-A, those showing 50% or more activity at 100 nM were designated 2-B, and those showing 1% or more but less than 50% activity at 100 nM were designated 2-C.
Peptides showing 50% or more activity at 1.25 nM were designated 3-A, those showing 50% or more activity at 5 nM were designated 3-B, those showing 50% or more activity at 20 nM were designated 3-C, and those showing 1% or more but less than 50% activity at 20 nM were designated 3-D.

T1 sequence (P35968 20-1356): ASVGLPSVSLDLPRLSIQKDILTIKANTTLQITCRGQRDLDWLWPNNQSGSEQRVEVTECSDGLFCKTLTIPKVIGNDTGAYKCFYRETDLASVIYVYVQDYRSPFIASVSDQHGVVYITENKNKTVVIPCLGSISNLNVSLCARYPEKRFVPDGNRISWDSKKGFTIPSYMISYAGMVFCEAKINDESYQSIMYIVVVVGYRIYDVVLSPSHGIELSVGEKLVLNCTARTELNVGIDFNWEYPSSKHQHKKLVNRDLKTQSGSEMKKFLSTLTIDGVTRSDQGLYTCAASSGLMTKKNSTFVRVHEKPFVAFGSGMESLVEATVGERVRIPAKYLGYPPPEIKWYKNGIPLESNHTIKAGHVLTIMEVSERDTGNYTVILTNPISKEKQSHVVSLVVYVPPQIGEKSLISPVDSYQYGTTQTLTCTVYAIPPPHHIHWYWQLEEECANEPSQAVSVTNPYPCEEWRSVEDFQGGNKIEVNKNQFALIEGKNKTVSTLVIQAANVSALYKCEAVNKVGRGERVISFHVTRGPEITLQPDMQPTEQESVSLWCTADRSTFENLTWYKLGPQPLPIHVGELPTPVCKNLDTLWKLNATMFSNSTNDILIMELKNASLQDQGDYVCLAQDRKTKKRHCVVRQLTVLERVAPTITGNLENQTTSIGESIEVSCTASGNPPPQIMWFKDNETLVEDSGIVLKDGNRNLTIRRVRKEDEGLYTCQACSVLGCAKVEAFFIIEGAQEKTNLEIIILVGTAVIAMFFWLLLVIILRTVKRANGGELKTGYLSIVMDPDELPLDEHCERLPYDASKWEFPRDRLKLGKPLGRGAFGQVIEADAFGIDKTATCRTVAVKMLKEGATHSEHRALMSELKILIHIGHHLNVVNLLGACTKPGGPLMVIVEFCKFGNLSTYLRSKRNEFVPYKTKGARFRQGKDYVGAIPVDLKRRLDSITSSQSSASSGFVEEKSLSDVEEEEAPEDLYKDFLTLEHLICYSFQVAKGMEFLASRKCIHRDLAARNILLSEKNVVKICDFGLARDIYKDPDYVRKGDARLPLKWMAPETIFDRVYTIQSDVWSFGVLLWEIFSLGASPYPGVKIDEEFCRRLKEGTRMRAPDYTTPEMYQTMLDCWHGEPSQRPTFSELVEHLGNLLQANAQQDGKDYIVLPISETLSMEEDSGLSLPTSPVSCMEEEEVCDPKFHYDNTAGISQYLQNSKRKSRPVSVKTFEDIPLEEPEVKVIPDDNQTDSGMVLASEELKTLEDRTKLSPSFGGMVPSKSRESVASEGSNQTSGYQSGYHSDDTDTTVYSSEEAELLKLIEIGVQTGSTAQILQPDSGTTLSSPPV

SMILES | pVEGFR2 Assay Results
CC(C)C[C@@H]1NC(=O)[C@H](CC(=O)O)NC(=O)[C@H](CC(=O)O)NC(=O)[C@H](CCCCNC(=O)CCOCCOCCOCCOCCOCCOCCOCCOCCOCCOCCOCCOCCOCCOCCOCCOCCOCCC(=O)NCCCC[C@@H]2NC(=O)[C@H](C(C)C)NC(=O)[C@H](CC(=O)O)NC(=O)[C@H](C(C)(C)C)NC(=O)[C@H](Cc3c[nH]c4ccccc34)NC(=O)[C@H](Cc3c[nH]c4ccccc34)NC(=O)CSC[C@@H](C(=O)NCC(N)=O)NC(=O)[C@H](CC(=O)O)NC(=O)[C@H](C(C)C)NC(=O)[C@H](Cc3ccc(NC(=N)N)cc3)NC(=O)[C@H](Cc3ccc(O)cc3)NC(=O)[C@H](CC(C)C)NC(=O)[C@H](CC(=O)O)NC(=O)[C@H](CC(=O)O)NC2=O)NC(=O)[C@H](C(C)C)NC(=O)[C@H](CC(=O)O)NC(=O)[C@H](C(C)(C)C)NC(=O)[C@H](Cc2c[nH]c3ccccc23)NC(=O)[C@H](Cc2c[nH]c3ccccc23)NC(=O)CSC[C@@H](C(=O)NCC(N)=O)NC(=O)[C@H](CC(=O)O)NC(=O)[C@H](C(C)C)NC(=O)[C@H](Cc2ccc(NC(=N)N)cc2)NC(=O)[C@H](Cc2ccc(O)cc2)NC1=O [compound 43] (I: {CH2CO}-WW[Tle]DVKDDLY[Phe(4-guanidino)]VDCG-NH2 / II: {CH2CO}-WW[Tle]DVKDDLY[Phe(4-guanidino)]VDCG-NH2; linker I:6-II:6 via CO(CH2)2(OCH2CH2)17CO; thioether I:N-I:14, II:N-II:14) | 3-C (50% or more activity at 20 nM)
CC(C)C[C@@H]1NC(=O)[C@H](CC(=O)O)NC(=O)[C@H](CC(=O)O)NC(=O)[C@H](CCCCNC(=O)CCOCCOCCOCCOCCOCCOCCOCCOCCOCCOCCOCCOCCOCCOCCOCCOCCOCCC(=O)NCCCC[C@@H]2NC(=O)[C@H](C(C)C)NC(=O)[C@H](CC(=O)O)NC(=O)[C@H](C(C)(C)C)NC(=O)[C@H](Cc3c[nH]c4ccccc34)NC(=O)[C@H](Cc3c[nH]c4ccccc34)NC(=O)CSC[C@@H](C(=O)NCC(N)=O)NC(=O)[C@H](CC(=O)O)NC(=O)[C@H](CCc3ccc(O)cc3)NC(=O)[C@H](Cc3ccc(NC(=N)N)cc3)NC(=O)[C@H](Cc3ccc(O)cc3)NC(=O)[C@H](CC(C)C)NC(=O)[C@H](CC(=O)O)NC(=O)[C@H](CC(=O)O)NC2=O)NC(=O)[C@H](C(C)C)NC(=O)[C@H](CC(=O)O)NC(=O)[C@H](C(C)(C)C)NC(=O)[C@H](Cc2c[nH]c3ccccc23)NC(=O)[C@H](Cc2c[nH]c3ccccc23)NC(=O)CSC[C@@H](C(=O)NCC(N)=O)NC(=O)[C@H](CC(=O)O)NC(=O)[C@H](CCc2ccc(O)cc2)NC(=O)[C@H](Cc2ccc(NC(=N)N)cc2)NC(=O)[C@H](Cc2ccc(O)cc2)NC1=O [compound 45] (I: {CH2CO}-WW[Tle]DVKDDLY[Phe(4-guanidino)][hTyr]DCG-NH2 / II: {CH2CO}-WW[Tle]DVKDDLY[Phe(4-guanidino)][hTyr]DCG-NH2; linker I:6-II:6 via CO(CH2)2(OCH2CH2)17CO; thioether I:N-I:14, II:N-II:14) | 3-C (50% or more activity at 20 nM)
CC(C)C[C@@H]1NC(=O)[C@H](CC(=O)O)NC(=O)[C@H](CC(=O)O)NC(=O)[C@H](CCCCNC(=O)CCOCCOCCOCCOCCOCCOCCOCCOCCOCCOCCOCCOCCOCCOCCOCCOCCOCCC(=O)NCCCC[C@@H]2NC(=O)[C@H](C(C)C)NC(=O)[C@H](CC(=O)O)NC(=O)[C@H](C(C)(C)C)NC(=O)[C@H](Cc3c[nH]c4ccccc34)NC(=O)[C@H](Cc3c[nH]c4ncccc34)NC(=O)CSC[C@@H](C(=O)NCC(N)=O)NC(=O)[C@H](CC(=O)O)NC(=O)[C@H](CCc3ccc(O)cc3)NC(=O)[C@H](Cc3ccccc3)NC(=O)[C@H](Cc3ccc(O)cc3)NC(=O)[C@H](CC(C)C)NC(=O)[C@H](CC(=O)O)NC(=O)[C@H](CC(=O)O)NC2=O)NC(=O)[C@H](C(C)C)NC(=O)[C@H](CC(=O)O)NC(=O)[C@H](C(C)(C)C)NC(=O)[C@H](Cc2c[nH]c3ccccc23)NC(=O)[C@H](Cc2c[nH]c3ncccc23)NC(=O)CSC[C@@H](C(=O)NCC(N)=O)NC(=O)[C@H](CC(=O)O)NC(=O)[C@H](CCc2ccc(O)cc2)NC(=O)[C@H](Cc2ccccc2)NC(=O)[C@H](Cc2ccc(O)cc2)NC1=O [compound 46] (I: {CH2CO}-[Trp(7-aza)]W[Tle]DVKDDLYF[hTyr]DCG-NH2 / II: {CH2CO}-[Trp(7-aza)]W[Tle]DVKDDLYF[hTyr]DCG-NH2; linker I:6-II:6 via CO(CH2)2(OCH2CH2)17CO; thioether I:N-I:14, II:N-II:14) | 3-C (50% or more activity at 20 nM)
CC(C)C[C@@H]1NC(=O)[C@H](CC(=O)O)NC(=O)[C@H](CC(N)=O)NC(=O)[C@H](CCCCNC(=O)CCOCCOCCOCCOCCOCCOCCOCCOCCOCCOCCOCCOCCOCCOCCOCCOCCOCCC(=O)NCCCC[C@@H]2NC(=O)[C@H](C(C)C)NC(=O)[C@H](CC(=O)O)NC(=O)[C@H](C(C)(C)C)NC(=O)[C@H](Cc3c[nH]c4ccccc34)NC(=O)[C@H](Cc3c[nH]c4ccccc34)NC(=O)CSC[C@@H](C(=O)NCC(N)=O)NC(=O)[C@H](CC(=O)O)NC(=O)[C@H](CCc3ccc(O)cc3)NC(=O)[C@H](Cc3ccccc3)NC(=O)[C@H](Cc3ccc(O)cc3)NC(=O)[C@H](CC(C)C)NC(=O)[C@H](CC(=O)O)NC(=O)[C@H](CC(N)=O)NC2=O)NC(=O)[C@H](C(C)C)NC(=O)[C@H](CC(=O)O)NC(=O)[C@H](C(C)(C)C)NC(=O)[C@H](Cc2c[nH]c3ccccc23)NC(=O)[C@H](Cc2c[nH]c3ccccc23)NC(=O)CSC[C@@H](C(=O)NCC(N)=O)NC(=O)[C@H](CC(=O)O)NC(=O)[C@H](CCc2ccc(O)cc2)NC(=O)[C@H](Cc2ccccc2)NC(=O)[C@H](Cc2ccc(O)cc2)NC1=O [compound 47] (I: {CH2CO}-WW[Tle]DVKNDLYF[hTyr]DCG-NH2 / II: {CH2CO}-WW[Tle]DVKNDLYF[hTyr]DCG-NH2; linker I:6-II:6 via CO(CH2)2(OCH2CH2)17CO; thioether I:N-I:14, II:N-II:14) | 3-C (50% or more activity at 20 nM)

same assay, conditions: 10 minutes stimulation, % activity, maximum VEGF165a signal = 100%, unstimulated = 0%, peptide 10, 100 nM (dimer structures 2-41)

SMILES | pVEGFR2 Assay Results
CC(C)C[C@@H]1NC(=O)[C@H](CC(=O)O)NC(=O)[C@H](CC(=O)O)NC(=O)[C@H](CCCCNC(=O)CCOCCOCCOCCOCCOCCOCCOCCOCCOCCOCCOCCOCCOCCOCCOCCOCCOCCC(=O)NCCCC[C@@H]2NC(=O)[C@H](C(C)C)NC(=O)[C@H](CCC(N)=O)NC(=O)[C@H](C(C)(C)C)NC(=O)[C@H](Cc3c[nH]c4ccccc34)NC(=O)[C@H](Cc3c[nH]c4ccccc34)NC(=O)CSC[C@@H](C(=O)NCC(N)=O)NC(=O)[C@H](CC(=O)O)NC(=O)[C@H](CCc3ccc(O)cc3)NC(=O)[C@H](Cc3ccccc3)NC(=O)[C@H](Cc3ccc(O)cc3)NC(=O)[C@H](CC(C)C)NC(=O)[C@H](CC(=O)O)NC(=O)[C@H](CC(=O)O)NC2=O)NC(=O)[C@H](C(C)C)NC(=O)[C@H](CCC(N)=O)NC(=O)[C@H](C(C)(C)C)NC(=O)[C@H](Cc2c[nH]c3ccccc23)NC(=O)[C@H](Cc2c[nH]c3ccccc23)NC(=O)CSC[C@@H](C(=O)NCC(N)=O)NC(=O)[C@H](CC(=O)O)NC(=O)[C@H](CCc2ccc(O)cc2)NC(=O)[C@H](Cc2ccccc2)NC(=O)[C@H](Cc2ccc(O)cc2)NC1=O [compound 26] (I: {CH2CO}-WW[Tle]QVKDDLYF[hTyr]DCG-NH2 / II: {CH2CO}-WW[Tle]QVKDDLYF[hTyr]DCG-NH2; linker I:6-II:6 via CO(CH2)2(OCH2CH2)17CO; thioether I:N-I:14, II:N-II:14) | 2-B (50% or more activity at 100 nM)
CC(C)C[C@@H]1NC(=O)[C@H](CC(=O)O)NC(=O)[C@H](CC(=O)O)NC(=O)[C@H](CCCCNC(=O)CCOCCOCCOCCOCCOCCOCCOCCOCCOCCOCCOCCOCCOCCOCCOCCOCCOCCC(=O)NCCCC[C@@H]2NC(=O)[C@H](C(C)C)NC(=O)[C@H](CC(=O)O)NC(=O)[C@H](C(C)(C)C)NC(=O)[C@H](Cc3c[nH]c4ccccc34)NC(=O)[C@H](Cc3c[nH]c4ccccc34)NC(=O)CSC[C@@H](C(=O)NCC(N)=O)NC(=O)[C@H](CC(=O)O)NC(=O)[C@H](CCc3ccncc3)NC(=O)[C@H](Cc3ccccc3)NC(=O)[C@H](Cc3ccc(O)cc3)NC(=O)[C@H](CC(C)C)NC(=O)[C@H](CC(=O)O)NC(=O)[C@H](CC(=O)O)NC2=O)NC(=O)[C@H](C(C)C)NC(=O)[C@H](CC(=O)O)NC(=O)[C@H](C(C)(C)C)NC(=O)[C@H](Cc2c[nH]c3ccccc23)NC(=O)[C@H](Cc2c[nH]c3ccccc23)NC(=O)CSC[C@@H](C(=O)NCC(N)=O)NC(=O)[C@H](CC(=O)O)NC(=O)[C@H](CCc2ccncc2)NC(=O)[C@H](Cc2ccccc2)NC(=O)[C@H](Cc2ccc(O)cc2)NC1=O [compound 32] (I: {CH2CO}-WW[Tle]DVKDDLYF[h4Pal]DCG-NH2 / II: {CH2CO}-WW[Tle]DVKDDLYF[h4Pal]DCG-NH2; linker I:6-II:6 via CO(CH2)2(OCH2CH2)17CO; thioether I:N-I:14, II:N-II:14) | 2-A (50% or more activity at 10 nM)
